pIC50: −log10 of the molar value.
System: 885512-296-R-J2-PDC complex spheroid viability
Test: Anticancer human tumor 885512-296-R-J2-PDC patient-derived breast carcinoma cell line growth inhibition [GQUAD]
Details: for pIC50: curve of first compound; for viability, T/C: stronger effect = lower value
How it was run: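 Tumor cells were grown as complex spheroids with HUVEC endothelial cells and mesenchymal stem cells as stroma. G-quadruplex stabilizers were combined with targeted agents over half-log dilutions from near the clinical Cmax, or from 10 microM.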

[1] = second compound 0.0316 µM, first compound 0.000999 µM
[2] = second compound 0.0316 µM, first compound 0.00316 µM
[3] = second compound 0.0316 µM, first compound 0.00999 µM
[4] = second compound 0.0316 µM, first compound 0.0316 µM
[5] = second compound 0.0316 µM, first compound 0.0999 µM
[6] = second compound 0.0316 µM, first compound 0.316 µM
[7] = second compound 0.1 µM, first compound 0.000999 µM
[8] = second compound 0.1 µM, first compound 0.00316 µM
[9] = second compound 0.1 µM, first compound 0.00999 µM
[10] = second compound 0.1 µM, first compound 0.0316 µM
[11] = second compound 0.1 µM, first compound 0.0999 µM
[12] = second compound 0.1 µM, first compound 0.316 µM
[13] = second compound 0.316 µM, first compound 0.000999 µM
[14] = second compound 0.316 µM, first compound 0.00316 µM
[15] = second compound 0.316 µM, first compound 0.00999 µM
[16] = second compound 0.316 µM, first compound 0.0316 µM
[17] = second compound 0.316 µM, first compound 0.0999 µM
[18] = second compound 0.316 µM, first compound 0.316 µM
[19] = second compound 1 µM, first compound 0.000999 µM
[20] = second compound 1 µM, first compound 0.00316 µM
[21] = second compound 1 µM, first compound 0.00999 µM
[22] = second compound 1 µM, first compound 0.0316 µM
[23] = second compound 1 µM, first compound 0.0999 µM
[24] = second compound 1 µM, first compound 0.316 µM
[25] = second compound 3.16 µM, first compound 0.000999 µM
[26] = second compound 3.16 µM, first compound 0.00316 µM
[27] = second compound 3.16 µM, first compound 0.00999 µM
[28] = second compound 3.16 µM, first compound 0.0316 µM
[29] = second compound 3.16 µM, first compound 0.0999 µM
[30] = second compound 3.16 µM, first compound 0.316 µM
[31] = second compound 10 µM, first compound 0.000999 µM
[32] = second compound 10 µM, first compound 0.00316 µM
[33] = second compound 10 µM, first compound 0.00999 µM
[34] = second compound 10 µM, first compound 0.0316 µM
[35] = second compound 10 µM, first compound 0.0999 µM
[36] = second compound 10 µM, first compound 0.316 µM
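Also: spheroids exposed to the compounds for one week.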
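For viability, T/C in this document: percent of tumor spheroid viability relative to DMSO vehicle control wells.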

`Cc1[nH]c2ccccc2c1CCNCc1ccc(/C=C/C(=O)NO)cc1` + CN(C)c1ccc(Nc2c3ccc(NC(=O)CCN4CCCC4)cc3nc3cc(NC(=O)CCN4CCCC4)ccc23)cc1 gave a pIC50 (second compound 0.0316 µM) of 7.58, a pIC50 (second compound 0.1 µM) of 7.61 and a pIC50 (second compound 0.316 µM) of 7.69. The pIC50 (second compound 1 µM) was 7.51, the pIC50 (second compound 3.16 µM) was 8.07 and the pIC50 (second compound 10 µM) was over 9.00. The viability, T/C [1] was 96.5%, the viability, T/C [2] was 84.1% and the viability, T/C [3] was 70.8%. It also gave a viability, T/C [4] of 40.1%, a viability, T/C [5] of 30.1% and a viability, T/C [6] of 3.59%. For the same molecule, the viability, T/C [7] was 95.6%, the viability, T/C [8] was 91.7% and the viability, T/C [9] was 64.8%. The viability, T/C [10] was 44.1%, the viability, T/C [11] was 25.3% and the viability, T/C [12] was 4.19%. It also gave a viability, T/C [13] of 103%, a viability, T/C [14] of 93.2% and a viability, T/C [15] of 63%. It also gave a viability, T/C [16] of 35.9%, a viability, T/C [17] of 28.6% and a viability, T/C [18] of 4.61%. For the same molecule, the viability, T/C [19] was 85.7%, the viability, T/C [20] was 94.4% and the viability, T/C [21] was 63.7%. It also gave a viability, T/C [22] of 48%, a viability, T/C [23] of 29.5% and a viability, T/C [24] of 4.03%. It also gave a viability, T/C [25] of 80%, a viability, T/C [26] of 64.7% and a viability, T/C [27] of 46.5%. For the same molecule, the viability, T/C [28] was 30.1%, the viability, T/C [29] was 24.6% and the viability, T/C [30] was 5.49%. The viability, T/C [31] was 18.2%, the viability, T/C [32] was 17.7% and the viability, T/C [33] was 11.3%. For the same molecule, the viability, T/C [34] was 10.3%, the viability, T/C [35] was 13% and the viability, T/C [36] was 2.87%.

`CCc1c2c(nc3ccc(O)cc13)-c1cc3c(c(=O)n1C2)COC(=O)[C@]3(O)CC` + Cc1cnc(CNC(=O)c2c(=O)c3ccc(N4CCCN(C)CC4)nc3n3c2sc2ccccc23)cn1 was tested, and the pIC50 (second compound 0.0316 µM) was over 9.00, the pIC50 (second compound 0.1 µM) was over 9.00 and the pIC50 (second compound 0.316 µM) was over 9.00. For the same molecule, the pIC50 (second compound 1 µM) was over 9.00, the pIC50 (second compound 3.16 µM) was over 9.00 and the pIC50 (second compound 10 µM) was over 9.00. The viability, T/C [1] was 17.9%, the viability, T/C [2] was 8.3% and the viability, T/C [3] was 5.81%. For the same molecule, the viability, T/C [4] was 3.27%, the viability, T/C [5] was 2% and the viability, T/C [6] was 1.37%. For the same molecule, the viability, T/C [7] was 17%, the viability, T/C [8] was 10.5% and the viability, T/C [9] was 6.32%. The viability, T/C [10] was 4.29%, the viability, T/C [11] was 2.34% and the viability, T/C [12] was 1.47%. For the same molecule, the viability, T/C [13] was 16.3%, the viability, T/C [14] was 12.1% and the viability, T/C [15] was 9.75%. For the same molecule, the viability, T/C [16] was 4.25%, the viability, T/C [17] was 1.6% and the viability, T/C [18] was 1.03%. The viability, T/C [19] was 16.7%, the viability, T/C [20] was 14.3% and the viability, T/C [21] was 7.19%. The viability, T/C [22] was 1.29%, the viability, T/C [23] was 0.07% and the viability, T/C [24] was 0.1%. It also gave a viability, T/C [25] of 26.4%, a viability, T/C [26] of 19.8% and a viability, T/C [27] of 2.82%. For the same molecule, the viability, T/C [28] was 0.24%, the viability, T/C [29] was 0.06% and the viability, T/C [30] was 0.1%. For the same molecule, the viability, T/C [31] was 0.08%, the viability, T/C [32] was 0.14% and the viability, T/C [33] was 0.13%. The viability, T/C [34] was 0.1%, the viability, T/C [35] was 0.11% and the viability, T/C [36] was 0.13%.

Source: PubChem BioAssay AID2060490 (Molecular Pharmacology Branch, DTP, NCI, 2025)
